Source: patent US9426996B2, “Use of benzoxaboroles as volatile antimicrobial agents on meats, plants, or plant parts” (AgroFresh Inc., priority 2013, dated 2016)

What was measured:
Botrytis cinerea [1] = test: in vivo volatile bioassay using inoculated white carnations
Description: In order to assess the in vivo activity of volatile antimicrobial Compound A on controlling Botrytis cinerea on ornamental flowers, a volatile bioassay is developed using white carnations.
Five carnations are placed in an 800 mL jar containing 200 mL of a common commercial flower preservative. Five jars are then placed in a 117 L Rubbermaid storage box (Cat #2244). The petals are uniformly spray-inoculated with 5 mL of 1×10^5 spores/mL of Botrytis cinerea suspension. The tub is closed tightly. For treatment application, Compound A is dissolved in an aqueous 1,2-propylene glycol solution (3:1) and 5 mL of the solution is volatilized into the container using an ES-100-H SmartFog system (Reno, Nev.) through a ½″ side port that is sealed immediately after the application. The flowers are incubated for 3 days at 21° C. After storage, the flowers are evaluated for incidence based on presence of disease on flower petals relative to untreated control flowers for up to 8 days at 21° C., with results summarized in Table 12.

Botrytis cinerea [2] = test: in vivo strawberry assay, release from cellulose paper and Tyvek fabric; conditions: strawberries
Description: An in vivo assay is used to evaluate the ability of Compound A to volatilize from different materials and control fungal pathogens. Eight strawberries are placed in a clamshell with stem end facing downwards. […] The clamshells are then placed in a 10.8-cup SnapWare airtight container (Model #109842). Compound A is dissolved in acetone and then evenly sprayed onto cellulose paper and Tyvek® fabric at a rate of 200 milligrams per square meter (mg/m^2). The acetone is allowed to evaporate. Likewise Compound A is dissolved in propylene glycol and evenly sprayed onto cellulose paper and Tyvek® fabric. No evaporation is attempted in this case.
Pieces of material are cut to the appropriate dimensions to deliver a final headspace concentration of 0.4, 2, or 10 mg/L. The containers are close, and placed for three days at 21° C. After treatment, fruit are stored for an additional two days at 21° C. and then evaluated for incidence (%) and severity (0 to 4) of disease, with the results summarized in Table 23.

Alternaria alternata = test: combination treatment with 1-MCP on broccoli; type: in vivo; parameters: scale not given here; conditions: 21° C.
Description: To evaluate a combination treatment of Compound A with 1-methylcyclopropene (1-MCP), an in vivo experiment is performed on broccoli.
Broccoli flowers are inoculated with 1×10^6 spores/mL of Alternaria alternata and then placed in a 117 L Rubbermaid storage box (Cat #2244) with two small fans placed in opposite ends of the container. A 500 ppb v/v 1-MCP treatment is applied (AgroFresh, Springhouse, Pa.) for 24 hours at 1° C. After completion of the 1-MCP treatment, broccoli florets are removed and placed in a 10.8-cup SnapWare airtight container (Model #109842). Compound A powder is applied in a dose dependent manner to achieve a final headspace concentration of 2 or 0.4 mg/L with a sublimation device (copper tube heated to 200° C. with fan flow at 0.5 L/min), with the end of the tube penetrating through a ½ inch side port in the container that is sealed immediately after the application. The florets are incubated for five days at 10° C. or three days at 21° C., then evaluated for an additional five days at 21° C. for disease incidence and severity.

Botrytis cinerea [3] = test: in vitro inhibition assay for volatile antimicrobial compounds (12-well PDA plates); type: cell-based; conditions: in vitro; volatile; 14 days at 4° C.
Description: 12-Well (7 milliliter (mL volume per well) microtiter plates are used for the in vitro inhibition assay for volatile antimicrobial compounds. A 3-mL volume of full-strength Potato Dextrose Agar (PDA) is added to each well. After cooling, 1 microliter (μL) of 1×10^6 per mL Botrytis cinerea spore suspension is spot pipetted to the center of the agar. For the first experiment, inoculated plates are allowed to germinate for 5 days at 4° C. For the second experiment, plates are inoculated immediately prior to volatile fungicide treatment. Small Whatman #1 filter disks (Cat. No. 1001-0155) are placed, in duplicate, on the underside of a polyethylene PCR plate sealing film.
The acetone is permitted to evaporate for 5 minutes. The headspace around the Botrytis cinerea inoculum is then sealed inside the well by the film with the adhering disk containing the fungicide. Plates are inverted, placed over the treated disks and sealed to prevent any of the chemical from flaking from the disk and falling onto the inoculated agar. After 14 days of storage at 4° C., cultures are evaluated for percent growth relative to control. Regardless of whether the spores had germinated for 5 days, or if the treatment commenced soon after inoculation of the plates (˜15 minutes); there is 100% control of the fungal pathogen down to 0.005 mg.
A total of 14 antimicrobial compounds are tested using the in vitro inhibition assay described in Example 1. All 14 compounds are applied to the Whatman disks, in duplicate, in a dose dependent manner (0.31 to 0.0006 mg/disk). […] Other compounds, such as Compound C, Compound D, and Compound E conferred 100% control down to 0.023, 0.04, and 0.08 mg/disk, respectively. Results of nine compounds are summarized in Table 2, where the other five compounds show no detected activity in the ranges tested. […]

OB1OCc2cc(F)ccc21 [Compound A]
Disease incidence (%) on Petals (Botrytis cinerea [1]; 0.04 mg/L, Day 0): 0% | Disease incidence (%) on Petals (Botrytis cinerea [1]; 0.04 mg/L, Day 1): 0% | Disease incidence (%) on Petals (Botrytis cinerea [1]; 0.04 mg/L, Day 2): 16% | Disease incidence (%) on Petals (Botrytis cinerea [1]; 0.04 mg/L, Day 3): 40% | Disease incidence (%) on Petals (Botrytis cinerea [1]; 0.04 mg/L, Day 8): 92% | Disease incidence (%) on Petals (Botrytis cinerea [1]; 0.2 mg/L, Day 0): 0% | Disease incidence (%) on Petals (Botrytis cinerea [1]; 0.2 mg/L, Day 1): 8% | Disease incidence (%) on Petals (Botrytis cinerea [1]; 0.2 mg/L, Day 2): 20% | Disease incidence (%) on Petals (Botrytis cinerea [1]; 0.2 mg/L, Day 3): 16% | Disease incidence (%) on Petals (Botrytis cinerea [1]; 0.2 mg/L, Day 8): 36% | Disease incidence (%) on Petals (Botrytis cinerea [1]; 1 mg/L, Day 0): 0% | Disease incidence (%) on Petals (Botrytis cinerea [1]; 1 mg/L, Day 1): 0% | Disease incidence (%) on Petals (Botrytis cinerea [1]; 1 mg/L, Day 2): 0% | Disease incidence (%) on Petals (Botrytis cinerea [1]; 1 mg/L, Day 3): 4% | Disease incidence (%) on Petals (Botrytis cinerea [1]; 1 mg/L, Day 8): 16% | Incidence (%) (Botrytis cinerea [2]; 0.4 mg/L, Cellulose Paper): 37.5% | Severity (0-4) (Botrytis cinerea [2]; 0.4 mg/L, Cellulose Paper): 0.8 | Incidence (%) (Botrytis cinerea [2]; 0.4 mg/L, Tyvek): 31.3% | Severity (0-4) (Botrytis cinerea [2]; 0.4 mg/L, Tyvek): 0.5 | Incidence (%) (Botrytis cinerea [2]; 2 mg/L, Cellulose Paper): 37.5% | Severity (0-4) (Botrytis cinerea [2]; 2 mg/L, Cellulose Paper): 0.7 | Incidence (%) (Botrytis cinerea [2]; 2 mg/L, Tyvek): 6.3% | Severity (0-4) (Botrytis cinerea [2]; 2 mg/L, Tyvek): 0.1 | Severity (0-4) (Botrytis cinerea [2]; 10 mg/L, Cellulose Paper): 0.2 | Incidence (%) (Botrytis cinerea [2]; 10 mg/L, Tyvek): 6.3% | Severity (0-4) (Botrytis cinerea [2]; 10 mg/L, Tyvek): 0.3 | Color Score (Alternaria alternata; 0.4 mg/L): 1.32 | Severity (Alternaria alternata; 0.4 mg/L): 0.29 | Color Score (Alternaria alternata; 2 mg/L): 1.89 | Severity (Alternaria alternata; 2 mg/L): 0.07 | lowest rate with 100% control of Botrytis cinerea (Botrytis cinerea [3]): 0.005 mg/disk
